Reference: PubChem BioAssay AID330 (DTP/NCI, 2004)
“And” between values parts separate entries of the source, which are not always exact repeats. Equal entries are not always repeated. Inconclusive results and toxic doses are left out.

Tested on: P388 leukemia ip, CD2F1 mice, survival T/C
Assay: NCI In Vivo Anticancer Drug Screen. Data for tumor model P388 Leukemia (intraperitoneal) in CD2F1 (CDF1) mice
Conditions: endpoint: median survival time, higher = longer survival
How it was run: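 Mice carrying the transplanted tumor received test compound or vehicle. Survival was recorded in each group, and the value is the treated-group measurement divided by that of the vehicle-treated control group.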

[1] = dose: 100.0 mg/kg/injection, schedule: Q04DX003 (ip), vehicle: suspension in saline
[2] = dose: 50.0 mg/kg/injection, schedule: Q01DX005 (ip), vehicle: saline with Tween-80
[3] = dose: 100.0 mg/kg/injection, schedule: Q01DX005 (ip), vehicle: saline with Tween-80
[4] = dose: 100.0 mg/kg/injection, schedule: Q04DX002 (ip), vehicle: saline with Tween-80
[5] = dose: 200.0 mg/kg/injection, schedule: Q04DX002 (ip), vehicle: saline with Tween-80
[6] = dose: 50.0 mg/kg/injection, schedule: Q01DX005 (ip), vehicle: Klucel (hydroxypropylcellulose) (HPC)
[7] = dose: 100.0 mg/kg/injection, schedule: Q01DX005 (ip), vehicle: Klucel (hydroxypropylcellulose) (HPC)
[8] = dose: 200.0 mg/kg/injection, schedule: Q01DX005 (ip), vehicle: Klucel (hydroxypropylcellulose) (HPC)

CN1C(=O)C23CCCN2C(=O)C1(C)SC(=N)S3 (stereo not given)
T/C (dose: 25.0 mg/kg/injection, schedule: Q04DX003 (ip), vehicle: suspension in saline): 101 % of control
T/C (dose: 50.0 mg/kg/injection, schedule: Q04DX003 (ip), vehicle: suspension in saline): 95 % of control
T/C [1]: 95 % of control

CC(/C=C/C(=O)NO)=C\C(C)C(=O)c1ccc(N(C)C)cc1 (stereo not given)
T/C (dose: 2.19 mg/kg/injection, schedule: Q01DX009 (ip), vehicle: Klucel (hydroxypropylcellulose) (HPC)): 107 % of control
T/C (dose: 4.38 mg/kg/injection, schedule: Q01DX009 (ip), vehicle: Klucel (hydroxypropylcellulose) (HPC)): 114 % of control
T/C (dose: 8.75 mg/kg/injection, schedule: Q01DX009 (ip), vehicle: Klucel (hydroxypropylcellulose) (HPC)): 122 % of control and 96 % of control
T/C (dose: 8.75 mg/kg/injection, schedule: Q01DX009 (ip), vehicle: saline with Tween-80): 152 % of control
T/C (dose: 17.5 mg/kg/injection, schedule: Q01DX009 (ip), vehicle: Klucel (hydroxypropylcellulose) (HPC)): 91 % of control
T/C (dose: 17.5 mg/kg/injection, schedule: Q01DX009 (ip), vehicle: saline with Tween-80): 90 % of control

CCC(=O)O[C@H]1CC[C@H]2[C@@H]3[C@@H](C)CC4=CC(=O)CC[C@]4(C)[C@H]3CC[C@]12C
T/C (dose: 100.0 mg/kg/injection, schedule: Q04DX003 (ip), vehicle: saline with Tween-80): 90 % of control
T/C (dose: 200.0 mg/kg/injection, schedule: Q04DX003 (ip), vehicle: saline with Tween-80): 90 % of control
T/C (dose: 400.0 mg/kg/injection, schedule: Q04DX003 (ip), vehicle: saline with Tween-80): 90 % of control

CS(=O)(=O)OCc1cc(=O)c(OS(C)(=O)=O)co1
T/C [2]: 108 % of control
T/C [3]: 110 % of control
T/C (dose: 200.0 mg/kg/injection, schedule: Q01DX005 (ip), vehicle: saline with Tween-80): 112 % of control

Clc1ccccc1CN1COc2c(cc(Cl)c3cccnc23)C1
T/C (dose: 100.0 mg/kg/injection, schedule: Q04DX003 (ip), vehicle: Klucel (hydroxypropylcellulose) (HPC)): 95 % of control
T/C (dose: 200.0 mg/kg/injection, schedule: Q04DX003 (ip), vehicle: Klucel (hydroxypropylcellulose) (HPC)): 95 % of control
T/C (dose: 400.0 mg/kg/injection, schedule: Q04DX003 (ip), vehicle: Klucel (hydroxypropylcellulose) (HPC)): 95 % of control

Nc1[nH]c(=O)ncc1CS(=O)(=O)O
T/C (dose: 50.0 mg/kg/injection, schedule: Q04DX002 (ip), vehicle: saline with Tween-80): 97 % of control
T/C [4]: 108 % of control
T/C [5]: 107 % of control

O=[N+]([O-])c1ccc(NC(c2ccccc2)S(=O)(=O)O)cc1 (stereo not given)
T/C (dose: 50.0 mg/kg/injection, schedule: Q01DX009 (ip), vehicle: saline): 119 % of control
T/C (dose: 100.0 mg/kg/injection, schedule: Q01DX009 (ip), vehicle: saline): 109 % of control
T/C (dose: 200.0 mg/kg/injection, schedule: Q01DX009 (ip), vehicle: saline): 123 % of control

O=C(NC(Cc1ccccc1)C(=O)O)OCC1c2ccccc2-c2ccccc21 (stereo not given)
T/C [6]: 108 % of control
T/C [7]: 105 % of control

CN1CCC/C1=C/C(=O)c1ccccc1[N+](=O)[O-]
T/C (dose: 100.0 mg/kg/injection, schedule: Q04DX002 (ip), vehicle: Klucel (hydroxypropylcellulose) (HPC)): 102 % of control
T/C (dose: 200.0 mg/kg/injection, schedule: Q04DX002 (ip), vehicle: Klucel (hydroxypropylcellulose) (HPC)): 99 % of control
T/C (dose: 400.0 mg/kg/injection, schedule: Q04DX002 (ip), vehicle: Klucel (hydroxypropylcellulose) (HPC)): 100 % of control

C=C(C)C(=O)O[C@H]1[C@H]2[C@H](OC(=O)[C@H]2C)[C@H](O)[C@@H](C)[C@@H]2C=CC(=O)[C@]21C
T/C (dose: 7.5 mg/kg/injection, schedule: Q01DX009 (ip), vehicle: saline with Tween-80): 118 % of control
T/C (dose: 15.0 mg/kg/injection, schedule: Q01DX009 (ip), vehicle: saline with Tween-80): 113 % of control
T/C (dose: 30.0 mg/kg/injection, schedule: Q01DX009 (ip), vehicle: saline with Tween-80): 124 % of control

COc1cc2cnc(-c3ccncc3)c(N)c2cc1OC
T/C [1]: 100 % of control
T/C (dose: 200.0 mg/kg/injection, schedule: Q04DX003 (ip), vehicle: suspension in saline): 93 % of control
T/C (dose: 400.0 mg/kg/injection, schedule: Q04DX003 (ip), vehicle: suspension in saline): 89 % of control

CC[C@@]1(O)C[C@H](OC2CC(N(C)C)C(OC3CC(O)C(O[C@@H]4O[C@@H](C)C(=O)C=C4N)C(C)O3)C(C)O2)c2c(cc3c(c2O)C(=O)c2c(O)ccc(O)c2C3=O)[C@H]1C(=O)OC (stereo not given in full)
T/C (dose: 0.19 mg/kg/injection, schedule: Q01DX009 (ip), vehicle: saline): 150 % of control
T/C (dose: 0.38 mg/kg/injection, schedule: Q01DX009 (ip), vehicle: saline with Tween-80): 161 % of control
T/C (dose: 0.75 mg/kg/injection, schedule: Q01DX009 (ip), vehicle: saline with Tween-80): 175 % of control
T/C (dose: 0.75 mg/kg/injection, schedule: Q01DX009 (ip), vehicle: saline): 163 % of control
T/C (dose: 1.5 mg/kg/injection, schedule: Q01DX009 (ip), vehicle: saline with Tween-80): 89 % of control
T/C (dose: 1.5 mg/kg/injection, schedule: Q01DX009 (ip), vehicle: saline): 182 % of control
T/C (dose: 3.0 mg/kg/injection, schedule: Q01DX009 (ip), vehicle: saline): 94 % of control
T/C (dose: 1.0 micrograms/kg/injection, schedule: Q01DX005 (ip), vehicle: Klucel (hydroxypropylcellulose) (HPC)): 102 % of control
T/C (dose: 2.0 micrograms/kg/injection, schedule: Q01DX005 (ip), vehicle: Klucel (hydroxypropylcellulose) (HPC)): 106 % of control
T/C (dose: 4.0 micrograms/kg/injection, schedule: Q01DX005 (ip), vehicle: Klucel (hydroxypropylcellulose) (HPC)): 102 % of control
T/C (dose: 8.0 micrograms/kg/injection, schedule: Q01DX005 (ip), vehicle: Klucel (hydroxypropylcellulose) (HPC)): 102 % of control

COCNC(=S)c1cc(C(=S)NCOC)c(C(=O)NC(C)(C)C)nc1C(=O)NC(C)(C)C
T/C [4]: 92 % of control
T/C [5]: 98 % of control
T/C (dose: 400.0 mg/kg/injection, schedule: Q04DX002 (ip), vehicle: saline with Tween-80): 93 % of control

C/C=C(\CCNCCCC)[Si](C)(C)C
T/C (dose: 100.0 mg/kg/injection, schedule: Q04DX002 (ip), vehicle: saline): 104 % of control
T/C (dose: 200.0 mg/kg/injection, schedule: Q04DX002 (ip), vehicle: saline): 101 % of control

Cc1ccc(S(=O)(=O)NC(=O)Nc2ncn[nH]2)cc1
T/C (dose: 50.0 mg/kg/injection, schedule: Q01DX009 (ip), vehicle: saline with Tween-80): 99 % of control
T/C (dose: 100.0 mg/kg/injection, schedule: Q01DX009 (ip), vehicle: saline with Tween-80): 98 % of control
T/C (dose: 200.0 mg/kg/injection, schedule: Q01DX009 (ip), vehicle: saline with Tween-80): 104 % of control

C=C(Cl)C(=NC(C)(C)C)Nc1c(Cl)cccc1Cl
T/C [6]: 98 % of control and 95 % of control
T/C [7]: 100 % of control
T/C [8]: 100 % of control and 90 % of control

C=C1CC[C@]2(C)CC[C@]3(C)C4=CC=C5C(=CC(=O)C(O)=C5C)[C@]4(C)CC[C@@]3(C)[C@@H]2C1
T/C (dose: 0.06 mg/kg/injection, schedule: Q01DX009 (ip), vehicle: saline with Tween-80): 97 % of control
T/C (dose: 0.09 mg/kg/injection, schedule: Q01DX009 (ip), vehicle: none): 93 % of control
T/C (dose: 0.12 mg/kg/injection, schedule: Q01DX009 (ip), vehicle: saline with Tween-80): 103 % of control
T/C (dose: 0.19 mg/kg/injection, schedule: Q01DX009 (ip), vehicle: none): 103 % of control
T/C (dose: 0.25 mg/kg/injection, schedule: Q01DX009 (ip), vehicle: saline with Tween-80): 100 % of control and 103 % of control
T/C (dose: 0.5 mg/kg/injection, schedule: Q01DX009 (ip), vehicle: none): 107 % of control and 98 % of control
T/C (dose: 0.5 mg/kg/injection, schedule: Q01DX009 (ip), vehicle: saline with Tween-80): 103 % of control and 115 % of control
T/C (dose: 0.75 mg/kg/injection, schedule: Q01DX009 (ip), vehicle: none): 103 % of control and 107 % of control
T/C (dose: 1.0 mg/kg/injection, schedule: Q01DX009 (ip), vehicle: none): 110 % of control
T/C (dose: 1.0 mg/kg/injection, schedule: Q01DX009 (ip), vehicle: saline with Tween-80): 112 % of control and 119 % of control
T/C (dose: 1.5 mg/kg/injection, schedule: Q01DX009 (ip), vehicle: none): 105 % of control and 120 % of control and 98 % of control
T/C (dose: 2.0 mg/kg/injection, schedule: Q01DX009 (ip), vehicle: none): 115 % of control and 120 % of control
T/C (dose: 3.0 mg/kg/injection, schedule: Q01DX009 (ip), vehicle: none): 95 % of control

O=CNc1ccc2c3c(cccc13)-c1ccccc1-2
T/C [6]: 89 % of control
T/C [7]: 97 % of control
T/C [8]: 100 % of control

O=[N+]([O-])c1ccc(N=Nc2ccc(NNc3ccc([N+](=O)[O-])cn3)c3cc4ccccc4cc23)nc1
T/C [2]: 100 % of control
T/C [3]: 110 % of control
